Patent US6197775A, “Phosphonate nucleotide derivatives” (Mitsubishi Chemical Corporation, priority 1995, dated 2001)
Read-outs that look alike come from different tables or passages of the source.

Experiments:
HBV = test: Inhibitory effect on HBV proliferation in a serum of a rat orally administered with a test compound (HB611 cells cultured with 5% serum); type: cell-based, Hepatitis B virus; conditions: 5% serum in medium
Procedure: Inhibitory effect on HBV proliferation in a serum of a rat orally administered with a test compound
A group consisting of three rats was orally administered with a test compound at a dose of 1 g/kg or 0.3 g/kg by a single oral administration. Blood of the rats was collected one hour after the administration and serum samples were prepared.
2×10^4 HB611 cells were cultured in Dulbecco's ME medium containing 10% fetal bovine serum, streptomycin (100 μg/ml), penicillin (100 IU/ml) and Geneteicin (0.2 mg/ml) at 37° C. The medium was changed with fresh medium on the second day and fifth day of the culture, and then changed with a medium containing 5% of the above serum (the serum of the rat orally administered with a test compound) on the 8th, 11th and 14th days of the culture. DNA of the cells were collected on the 17th day of the culture. Amounts of HBV-DNA in the cells were measured by Southern blotting method, and inhibitory ratios against […] synthesis in the cells were determined. As a reference, the same test was carried out by using PMEA. Compound Nos. in Table 3 correspond to those in Table 1.

Hepatitis B virus (HBV) = test: Activity for inhibiting proliferation of Hepatitis B virus (HBV): inhibition of HBV-DNA synthesis in HB611 cells; type: cell-based; conditions: read-out: Inhibitory ratio against HBV-DNA synthesis (%)
Procedure: Activity for inhibiting proliferation of Hepatitis B virus (HBV)
Inhibitory activity of the compounds of the present invention against proliferation of HBV was measured by a known method (K. Ueda, et al., VIROLOGY, 169, 213-216 (1989)).
(§1) 2×10^4 HB611 cells (recombinant human liver cancer cells producing HBV) were cultured in Dulbecco's ME medium containing 10% fetal bovine serum, streptomycin (100 μg/ml), penicillin (100 IU/ml), and Geneteicin (trade name of an antibiotic sold by Life Technologies, 0.2 mg/ml) at 37° C. The medium was changed with fresh medium on the second day and fifth day of the culture, and then changed with a medium containing a test compound at a final concentration of 10 μM or 1 μM on the 8th, 11th and 14th days of the culture. DNA of the cells were collected on the 17th day of the culture. Amounts of HBV-DNA in the cells were measured by Southern blotting method and inhibitory rates against HBV-DNA synthesis were determined. Concentrations of compounds required for 50% death of HB611 cells were determined by cell titer 96 (trademark of Promega Corp.). As references, the same test was carried out by using PMEA and its bis(pivaloyloxymethyl ester). Compound Nos. in Table 2 correspond to those in Table 1.

[1] = system: polychromatic erythrocytes (bone marrow); test: Micronucleus test using mice; type: in vivo
Procedure: Micronucleus test using mice
A test compound was administered to mice at a dose of 1,000 or 2,000 mg/kg, and bone marrow smear preparations were prepared at 24, 30, 48, and 72 hours after the administration. For a negative control group (0.5% aqueous solution of tragacanth gum) and a positive control group (2 mg/kg of mitomycin C (MMC) was administered as a single intraperitoneal administration), bone marrow smears were prepared at 24 hours after the administration. The samples were stained by the Giemsa's staining method in an ordinary manner, and then 2,000 polychromatic erythrocytes per animal were examined to determine the number of cells having micronuclei and frequency of appearance of micronuclei (%). As statistic analysis, significant difference test was carried out for polychromatic erythrocytes containing micronuclei between the negative control group and the group administered with a test compound according to the stochastic method of Kasternbaum and Bowman.
For comparison, the same test was carried out by using an unsubstituted 6-amino derivative, i.e., 9-[2-[bis(2,2,2-trifluoroethyl)phosphonylmethoxy]ethyl]-2,6-diaminopurine (abbreviated as "DAP"), and PMEA bis(pivaloyloxymethyl ester). Compound Nos. in Table 4 correspond to those in Table 1.

[2] = Cytotoxicity for HB611 cells (cell titer 96); type: cell-based, human; conditions: human; 50% death of HB611 cells; read-out: 50% Cytotoxic concentration for HB611 cells
Procedure: as §1

[3] = system: human immunodeficiency virus (HIV); conditions: literature (Yokota et al.; Votruba et al.); cited from earlier work
[4] = system: herpes simplex viruses type-2 (HSV-2); conditions: literature (Yokota et al.; Votruba et al.); cited from earlier work
[5] = system: human hepatitis B virus (HBV); conditions: literature (Yokota et al.; Votruba et al.); cited from earlier work
[6] = system: herpes simplex viruses type-1 (HSV-1); conditions: literature (Yokota et al.; Votruba et al.); cited from earlier work
HB611 cells = test: Cytotoxicity for HB611 cells (cell titer 96); type: cell-based, human; conditions: 50% death of HB611 cells; read-out: 50% Cytotoxic concentration for HB611 cells
Procedure: as §1

[7] = serum of rats 1 h after single oral dose of 0.3 g/kg
[8] = 408 h, 1 μM, HB611 cells, DNA collected on 17th day
[9] = 408 h, 10 μM, HB611 cells, DNA collected on 17th day

Structure (SMILES)	inhibition at 1 µM (Hepatitis B virus (HBV); [8]) [%]	inhibition at 10 µM (Hepatitis B virus (HBV); [9]) [%]	Test result (micronucleus test) ([1]; mouse, in vivo)	CC50 [2] [mM]	further results
CN(C)c1nc(N)nc2c1ncn2CCOCP(=O)(OCC(F)(F)F)OCC(F)(F)F [Compound 11, 2-amino-9-[2-[bis(2,2,2-trifluoroethyl)phosphonylmethoxy]ethyl]-6-(dimethylamino)purine]	92	100	Negative	> 1	Inhibitory ratio against HBV-DNA synthesis (%) (HBV; [7]): 95.6%
CCCN(C)c1nc(N)nc2c1ncn2CCOCP(=O)(OCC(F)(F)F)OCC(F)(F)F [Compound 13, 2-amino-9-[2-[bis(2,2,2-trifluoroethyl)phosphonylmethoxy]-ethyl]-6-(methyl-1-propylamino)purine]	–	100	Negative	> 1	Inhibitory ratio against HBV-DNA synthesis (%) (HBV; [7]): 100%
CCCCN(C)c1nc(N)nc2c1ncn2CCOCP(=O)(OCC(F)(F)F)OCC(F)(F)F [Compound 15]	86.7	–	–	> 1	–
CCN(CC)c1nc(N)nc2c1ncn2CCOCP(=O)(OCC(F)(F)F)OCC(F)(F)F [Compound 16, 2-amino-9-[2-[bis(2,2,2-trifluoroethyl)phosphonylmethoxy]-ethyl]-6-(diethylamino)purine]	–	100	–	> 1	–
CN(C)c1nc(N)nc2c1nnn2CCOCP(=O)(OCC(F)(F)F)OCC(F)(F)F [Compound 21, 2-amino-8-aza-9-[2-[bis(2,2,2-trifluoroethyl)phosphonyl-methoxy]ethyl]-6-(dimethylamino)purine]	–	100	–	> 1	–
CN(c1ccccc1)c1nc(N)nc2c1ncn2CCOCP(=O)(OCC(F)(F)F)OCC(F)(F)F [Compound 621, 2-amino-9-[2-[bis(2,2,2-trifluoroethyl)phosphonyl-methoxy]ethyl]-6-(methylphenylamino)purine]	68	–	–	> 1	–
Nc1nc(N)c2ncn(CCOCP(=O)(OCC(F)(F)F)OCC(F)(F)F)c2n1 [DAP, 9-[2-[bis(2,2,2-trifluoroethyl)phosphonylmethoxy]ethyl]-2,6-diaminopurine, reference compound]	–	–	Positive	–	–
Nc1nc(N)c2ncn(CCOCP(=O)(O)O)c2n1 [PMDAP, 9-(2-phosphonylmethoxy)ethyl-2,6-diaminopurine]	–	–	–	–	effectiveness against HIV [3]: effective; effectiveness against HSV-2 [4]: effective; effectiveness against HBV [5]: effective; effectiveness against HSV-1 [6]: effective
CC(C)(C)C(=O)OCOP(=O)(COCCn1cnc2c(N)ncnc21)OCOC(=O)C(C)(C)C [PMEA ester, PMEA bis(pivaloyloxymethyl ester), reference compound]	–	–	–	–	inhibition at 1 µM (Hepatitis B virus (HBV); HB611, 408 h): 63.7%; inhibition at 10 µM (Hepatitis B virus (HBV); HB611, 408 h): 90%; Test result (micronucleus test) ([1]; mice, 1,000 or 2,000 mg/kg, bone marrow at 24, 30, 48, and 72 hours): Positive; CC50 (HB611 cells): 0.018 mM
Nc1ncnc2c1ncn2CCOCP(=O)(O)O [PMEA, 9-(2-phosphonylmethoxy)ethyladenine]	–	–	–	–	effectiveness against HIV [3]: effective; Inhibitory ratio against HBV-DNA synthesis (%) (HBV; serum of rats 1 h after single oral dose of 1 g/kg): 35.5%; inhibition at 10 µM (Hepatitis B virus (HBV); HB611, 408 h): 83%; effectiveness against HSV-2 [4]: effective; effectiveness against HBV [5]: effective; effectiveness against HSV-1 [6]: effective
